The results in this text go back to patent publication EP3478687B1 (Daewoong Pharmaceutical Co., Ltd., priority 2016, dated 2018).

In assay [1] the target is T1, Recombinant purified human JAK3 (Homo sapiens, UniProt P52333).
T1 construct: purchased Promega V9441
T1 sequence (P52333 1-1124): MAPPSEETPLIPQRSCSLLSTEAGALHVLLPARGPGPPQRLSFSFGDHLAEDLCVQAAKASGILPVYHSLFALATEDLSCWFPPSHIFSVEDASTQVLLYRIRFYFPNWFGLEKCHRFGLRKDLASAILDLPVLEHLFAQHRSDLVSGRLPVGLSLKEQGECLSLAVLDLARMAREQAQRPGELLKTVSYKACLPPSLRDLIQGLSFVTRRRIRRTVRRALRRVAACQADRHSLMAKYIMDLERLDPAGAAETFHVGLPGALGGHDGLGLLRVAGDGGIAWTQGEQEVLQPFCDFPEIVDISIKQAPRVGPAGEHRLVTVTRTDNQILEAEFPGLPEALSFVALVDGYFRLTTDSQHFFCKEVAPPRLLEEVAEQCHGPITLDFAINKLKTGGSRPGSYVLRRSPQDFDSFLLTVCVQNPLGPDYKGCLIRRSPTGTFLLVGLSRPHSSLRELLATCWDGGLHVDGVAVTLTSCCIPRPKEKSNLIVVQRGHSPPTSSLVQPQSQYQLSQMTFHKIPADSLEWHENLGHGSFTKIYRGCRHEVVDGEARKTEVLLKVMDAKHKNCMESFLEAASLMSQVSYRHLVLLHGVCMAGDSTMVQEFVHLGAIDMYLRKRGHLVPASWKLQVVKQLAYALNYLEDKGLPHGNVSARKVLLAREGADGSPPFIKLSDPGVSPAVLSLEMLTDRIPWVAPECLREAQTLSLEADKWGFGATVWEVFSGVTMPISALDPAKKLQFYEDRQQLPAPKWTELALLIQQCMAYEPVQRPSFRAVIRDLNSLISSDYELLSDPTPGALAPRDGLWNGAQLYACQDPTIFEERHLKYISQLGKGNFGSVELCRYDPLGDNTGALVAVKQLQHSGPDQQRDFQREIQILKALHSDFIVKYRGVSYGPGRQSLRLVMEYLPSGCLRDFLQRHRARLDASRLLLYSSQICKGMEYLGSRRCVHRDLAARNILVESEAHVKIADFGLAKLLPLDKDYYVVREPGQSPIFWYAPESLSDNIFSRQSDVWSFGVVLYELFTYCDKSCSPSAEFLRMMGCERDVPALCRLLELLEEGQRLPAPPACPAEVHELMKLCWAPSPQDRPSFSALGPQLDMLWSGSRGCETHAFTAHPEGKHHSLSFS
Nature of the assay: JAK3 kinase inhibitory activity, ADP-Glo kinase assay (Promega V9441). It is filed as biochemical. To be noted: for IC50: ATP 5 uM, 4 ng JAK3 per reaction, 1 hour 30 °C, chemiluminescence; for inhibition at 0.1 µM: @100nM compound. As for the experimental part: (§1) JAK3 and BTK kinase inhibitory activities were measured for the compounds prepared in the above Examples through in vitro analysis on the ADP Glow (Glo) platform.
(§2) Specifically, the inhibitory activities of JAK3 and BTK kinase were measured using a JAK3 kinase assay kit (Promega, V9441) and a BTK kinase assay kit (Promega, V9071) which were purchased from Promega. Recombinant purified human JAK3 and BTK were diluted with 1 x kinase reaction buffer (JAK3: 40 mM Tris-Cl, pH 7.5, 20 mM MgCh, 0.1 mg/mL BSA and 50 uM DTT / BTK: 40 mM Tris-Cl, pH 7.5, 20 mM MgCl2, 0.1 mg/mL BSA, 2 mM MnCl2 and 50 uM DTT) and added to a 96 well plate (JAK3: final concentration of 4 ng per reaction/BTK: final concentration of 8 ng per reaction). The compounds were treated so as to be finally a 1% DMSO aqueous solution, and a substrate cocktail containing ATP (JAK3: final concentration of 5 uM / BTK: final concentration of 10 uM) and 0.2 µg/µL of Poly(Glu4, Tyr1) peptide (JAK3 and BTK final concentration) in the total 25 µL reactants was added to a 96-well plate to initiate enzymatic reaction. After incubation (30 °C) for 1 hour, equivalent volume (25 µL per reaction) of ADP Glo was added and incubated (30 °C) for 40 minutes at room temperature. Then, a kinase detection reagent (50 µL per reaction) was added and incubated (30 °C) for 30 minutes at room temperature. The kinase activity was measured by chemiluminescence according to the instructions of ADP Glo kinase assay kit, and the inhibitory activity of the compounds according to the present invention was calculated. For the analysis of the results of each compound, Microsoft Excel was used, and IC50 values were calculated by SigmaPlot software.

The target of assay [2] is T2, Recombinant purified human BTK (Homo sapiens, UniProt Q06187).
T2 construct: purchased Promega V9071
Nature of the assay: BTK kinase inhibitory activity, ADP-Glo kinase assay (Promega V9071). It is filed as biochemical. As to conditions: for IC50: ATP 10 uM, 8 ng BTK per reaction, 1 hour 30 °C, chemiluminescence; for inhibition at 0.1 µM: @100nM compound; for inhibition at 1 µM: @1uM compound. As to the method:
as §1, §2
(In general: In ADP-Glo the light output rises with the ADP produced.)

Setting [3] is: printed in the JAK3 IC50 column.

T2 sequence (Q06187 whole entry): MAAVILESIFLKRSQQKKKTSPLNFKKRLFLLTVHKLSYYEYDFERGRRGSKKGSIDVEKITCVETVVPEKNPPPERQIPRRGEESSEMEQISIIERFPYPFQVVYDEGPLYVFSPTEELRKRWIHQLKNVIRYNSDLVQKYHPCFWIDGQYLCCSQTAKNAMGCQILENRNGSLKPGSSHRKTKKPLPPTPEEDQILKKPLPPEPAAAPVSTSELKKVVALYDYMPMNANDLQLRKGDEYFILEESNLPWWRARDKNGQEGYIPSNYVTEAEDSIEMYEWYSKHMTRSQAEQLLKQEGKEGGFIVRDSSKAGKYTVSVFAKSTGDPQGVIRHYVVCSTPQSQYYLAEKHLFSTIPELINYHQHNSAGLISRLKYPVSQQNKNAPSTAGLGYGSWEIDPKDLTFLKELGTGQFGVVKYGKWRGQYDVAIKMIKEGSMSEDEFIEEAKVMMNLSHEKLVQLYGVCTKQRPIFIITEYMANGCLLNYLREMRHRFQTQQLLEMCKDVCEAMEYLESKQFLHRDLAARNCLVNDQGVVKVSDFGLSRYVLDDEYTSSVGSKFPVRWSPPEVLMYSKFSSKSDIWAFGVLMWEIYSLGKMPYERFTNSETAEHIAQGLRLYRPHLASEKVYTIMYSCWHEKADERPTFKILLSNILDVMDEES

Turning to `C=CC(=O)N1CCC[C@@H](Nc2nc(Nc3cnn(Cc4cccc(OC)c4)c3)nc3[nH]ccc23)C1` [Example 20, (R)-1-(3-(2-(1-(3-methoxybenzyl)-1H-pyrazol-4-ylamino)-7H-pyrrolo[2,3-d]pyrimidin-4-ylamino)piperidin-1-yl)prop-2-en-1-one], the results for the 50% inhibitory concentration (IC50) in assay [1] and in assay [2] were 0.7 nM and 9.5 nM, respectively.
For `C=CC(=O)N1CCC[C@@H](Nc2nc(Nc3cnn(CC)c3)nc3[nH]ccc23)C1` [Example 21, (R)-1-(3-(2-(1-ethyl-1H-pyrazol-4-ylamino)-7H-pyrrolo[2,3-d]pyrimidin-4-ylamino)piperidin-1-yl)prop-2-en-1-one], in that order: 0.4 nM and 4.5 nM.
On to `C=CC(=O)N1CCC[C@@H](Nc2nc(Nc3cn(C)nc3C)nc3[nH]ccc23)C1` [Example 22, (R)-1-(3-(2-(1,3-dimethyl-1H-pyrazol-4-ylamino)-7H-pyrrolo[2,3-d]pyrimidin-4-ylamino)piperidin-1-yl)prop-2-en-1-one], for which the inhibition at 0.1 µM was 17.3% in assay [1] (setting [3]) and 8.9% in assay [2].
For `C=CC(=O)N1CCC[C@@H](Nc2nc(Nc3cnoc3)nc3[nH]ccc23)C1` [Example 23, (R)-1-(3-(2-(isoxazol-4-ylamino)-7H-pyrrolo[2,3-d]pyrimidin-4-ylamino)piperidin-1-yl)prop-2-en-1-one], the values for the IC50 in assay [1] and in assay [2] were 0.9 nM and 13.9 nM, respectively.
For `C=CC(=O)N1CCC[C@@H](Nc2nc(Nc3cnn(CC(=O)NC)c3)nc3[nH]ccc23)C1` [Example 24, (R)-2-(4-(4-(1-acryloylpiperidin-3-ylamino)-7H-pyrrolo[2,3-d]pyrimidin-2-ylamino)-1H-pyrazol-1-yl)-N-methylacetamide], in that order: 0.4 nM and 15.3 nM.
For the compound `CC#CC(=O)N1CCC[C@@H](Nc2nc(Nc3cnn(CC(F)F)c3)nc3[nH]ccc23)C1` [Example 25, (R)-1-(3-(2-(1-(2,2-difluoroethyl)-1H-pyrazol-4-ylamino)-7H-pyrrolo[2,3-d]pyrimidin-4-ylamino)piperidin-1-yl)but-2-yn-1-one], in assay [1], the IC50 came to 11.2 nM. Further, in assay [2], the inhibition at 0.1 µM stood at 39.3%.
For `C=CC(=O)Nc1cccc(Nc2nc(N[C@@H]3CCCN(C(=O)CC#N)C3)c3cc[nH]c3n2)c1` [Example 26, (R)-N-(3-(4-(1-(2-cyanoacetyl)piperidin-3-ylamino)-7H-pyrrolo[2,3-d]pyrimidin-2-ylamino)phenyl)acrylamide], in that order: 39.2 nM and 10.3%.
Regarding `C=CC(=O)N1CC[C@@H](C)[C@@H](N(C)c2nc(Nc3ccc(N4CCN(C)CC4)cc3)nc3[nH]ccc23)C1` [Example 27, 1-((3R,4R)-4-methyl-3-(methyl(2-(4-(4-methylpiperazin-1-yl)phenylamino)-7H-pyrrolo[2,3-d]pyrimidin-4-yl)amino)piperidin-1-yl)prop-2-en-1-one], the inhibition at 1 µM in assay [1] (@1uM compound, printed in the JAK3 IC50 column) was 32.8%; in assay [2], 48%.
For `C[C@@H]1CCN(C(=O)CC#N)C[C@@H]1N(C)c1nc(Nc2ccc(N3CCN(C)CC3)cc2)nc2[nH]ccc12` [Example 28, 3-((3R,4R)-4-methyl-3-(methyl(2-(4-(4-methylpiperazin-1-yl)phenylamino)-7H-pyrrolo[2,3-d]pyrimidin-4-yl)amino)piperidin-1-yl)-3-oxopropanenitrile], the IC50 in assay [1] was 186 nM. For the same compound, the inhibition at 1 µM in assay [2] was determined as 3.3%.
Regarding `C=CC(=O)NC1CCCC(Nc2nc(Nc3ccc(N4CCN(C)CC4)cc3)nc3[nH]ccc23)C1` (stereo not shown) [Example 29, N-(3-(2-(4-(4-methylpiperazin-1-yl)phenylamino)-7H-pyrrolo[2,3-d]pyrimidin-4-ylamino)cyclohexyl)acrylamide], the half-maximal inhibitory concentration (IC50) in assay [1] is 66.2 nM. For the same compound, the inhibition at 1 µM in assay [2] stood at 47.1%.
Take `C=CC(=O)N1CCC[C@@H](Nc2nc(Nc3ccc(N4CCN(C)CC4)cc3)nc3[nH]ncc23)C1` [Example 30, (R)-1-(3-(6-(4-(4-methylpiperazin-1-yl)phenylamino)-1H-pyrazolo [3,4-d]pyrimidin-4-ylamino)piperidin-1-yl)prop-2-en-1-one]: the inhibition at 0.1 µM in assay [1] (setting [3]) stood at 52.6%. The IC50 in assay [2] was 6 nM.

As usually defined, the IC50 is the concentration that inhibits the measured activity by half. The inhibition is the drop in the measured response relative to a control, in per cent.
